# Results reported in patent US20230118795A1, “ARYL OR HETEROARYL PYRIDONE OR PYRIMIDINE DERIVATIVE, PREPARATION METHOD AND USE THEREOF” (SUZHOU ZELGEN BIOPHARMACEUTICALS CO., LTD., priority 2020, published 2023).
# Tested on: NCI-H358 (KRAS^G12C mutation) cell
# Experiment: Cell assay of antiproliferative activity against NCI-H358 cell (Celltiter-Glo, 5 days)
# Type: cell-based
# Conditions: 5 days incubation
# Procedure: Cell Assay of Antiproliferative Activity of Compounds Against NCI-H358 (KRAS^G12C Mutation) Cell.
# 40 μL phosphate buffer was added to the outer wells of the 384 microplate, and 40 μL cell suspension to be tested was added to the other wells. Then the microplate was incubated in a carbon dioxide incubator overnight.
# The compounds to be tested were gradiently diluted, each compound was performed 10 concentration gradients (diluted from 50 μM to 0.003 μM) and added 100 nL to the corresponding wells in the microplate. After addition, 40 μl of phosphate buffer was added to each well in rows A and P and columns 1 and 24, and then the microplate was incubated in a carbon dioxide incubator for 5 days.
# 20 μL of Promega Celltiter-Glo reagent was added to each well of the microplate, and then the luminescence signal was stabilized by oscillating at room temperature for 10 min. Then PekinElmer Envision multi-label analyzer was used to read.
# Finally, GraphPad Prism software was used to calculate the IC50 value of the compound and the fitting curve was drawn.
# Anti-proliferative activity of the compounds of the present invention against NCI-H358 (KRAS^G12C mutation) cell was shown in Table 1.
Compound,IC50 [nM],"IC50 (Homo sapiens, NCI-H358, 120 h) [nM]"
"C=CC(=O)N1CCN(c2nc(=O)n(-c3c(CC)cccc3S(C)(=O)=O)c3nc(-c4c(O)cccc4F)c(F)cc23)[C@@H](C)C1 (single isomer, unassigned) [Example 5B]",11,
"C=CC(=O)N1CCN(c2nc(=O)n(-c3c(C4CC4)cccc3S(C)(=O)=O)c3nc(-c4c(O)cccc4F)c(F)cc23)[C@@H](C)C1 (single isomer, unassigned) [Example 6A]",200,
"C=CC(=O)N1CCN(c2nc(=O)n(-c3c(C4CC4)cccc3S(C)(=O)=O)c3nc(-c4c(O)cccc4F)c(F)cc23)[C@@H](C)C1 (single isomer, unassigned) [Example 6B]",15,
"C=CC(=O)N1CCN(c2nc(=O)n(-c3c(C)ccnc3S(C)(=O)=O)c3nc(-c4c(O)cccc4F)c(F)cc23)[C@@H](C)C1 [Example 1, 4-((S)-4-acryloyl-2-methylpiperazin-1-yl)-6-fluoro-7-(2-fluoro-6-hydroxyphenyl)-1-(4-methyl-2-(methylsulfonyl)pyridin-3-yl) pyridino [2,3-d] pyrimidin-2 (1H)-one]",,90
"C=CC(=O)N1CCN(c2nc(=O)n(-c3c(S(C)(=O)=O)ccnc3C)c3nc(-c4c(O)cccc4F)c(F)cc23)[C@@H](C)C1 [Example 2, 4-((S)-4-acryloyl-2-methylpiperazin-1-yl)-6-fluoro-7-(2-fluoro-6-hydroxyphenyl)-1-(2-methyl-4-(methylsulfonyl)pyridin-3-yl) pyridino [2,3-d] pyrimidin-2 (1H)-one]",,540
"C=CC(=O)N1CCN(c2nc(=O)n(-c3c(C)cccc3S(C)(=O)=O)c3nc(-c4c(O)cccc4F)c(F)cc23)[C@@H](CC#N)C1 [Example 3, 2-((2S)-4-acryloyl-1-(6-fluoro-7-(2-fluoro-6-hydroxyphenyl)-1-(2-methyl-6-(methylsulfonyl)phenyl)-2-oxo-1,2-dihydropyridino[2,3-d]pyrimidin-4-yl)piperazin-2-yl) acetonitrile]",,870
"C=CC(=O)N1CCN(c2nc(=O)n(-c3c(C)cccc3S(=O)(=O)C(C)C)c3nc(-c4c(O)cccc4F)c(F)cc23)[C@@H](C)C1 [Example 4, 4-((S)-4-acryloyl-2-methylpiperazin-1-yl)-6-fluoro-7-(2-fluoro-6-hydroxyphenyl)-1-(2-(isopropylsulfonyl)-6-methylphenyl) pyridino[2,3-d] pyrimidin-2(1H)-one]",,420
"C=CC(=O)N1CCN(c2nc(=O)n(-c3c(CC)cccc3S(C)(=O)=O)c3nc(-c4c(O)cccc4F)c(F)cc23)[C@@H](C)C1 [Example 5, 4-((S)-4-acrylo-2-methylpiperazin-1-yl)-1-(2-ethyl-6-(methylsulfonyl)phenyl)-6-fluoro-7-(2-fluoro-6-hydroxyphenyl) pyridino[2,3-d] pyrimidin-2(1H)-one]",28,
C=CC(=O)N1CCN(c2nc(=O)n(-c3c(CC)cccc3S(C)(=O)=O)c3nc(-c4c(O)cccc4F)c(F)cc23)[C@@H](C)C1 [Example 5A],230,
"C=CC(=O)N1CCN(c2nc(=O)n(-c3c(C4CC4)cccc3S(C)(=O)=O)c3nc(-c4c(O)cccc4F)c(F)cc23)[C@@H](C)C1 [Example 6, 4-((S)-4-acryloyl-2-methylpiperazin-1-yl)-1-(2-cyclopropyl-6-(methylsulfonyl)phenyl)-6-fluoro-7-(2-fluoro-6-hydroxyphenyl) pyridino [2,3-d] pyrimidin-2(1H)-one]",,28
"C=CC(=O)N1CCN(c2nc(=O)n(-c3c(C)cccc3S(=O)(=O)C3CC3)c3nc(-c4c(O)cccc4F)c(F)cc23)[C@@H](C)C1 [Example 7, 4-((S)-4-acryloyl-2-methylpiperazin-1-yl)-1-(2-(cyclopropylsulfonyl)-6-methylphenyl)-6-fluoro-7-(2-fluoro-6-hydroxyphenyl) pyridino [2,3-d] pyrimidin-2(1H)-one]",,240
"C=CC(=O)N1CCN(c2nc(=O)n(-c3c(Cl)cccc3S(C)(=O)=O)c3nc(-c4c(O)cccc4F)c(F)cc23)[C@@H](C)C1 [Example 8, 4-((S)-4-acryloyl-2-methylpiperazin-1-yl)-1-(2-chloro-6-(methylsulfonyl)phenyl)-6-fluoro-7-(2-fluoro-6-hydroxyphenyl) pyridino [2,3-d] pyrimidin-2 (1H)-one]",,170
"C=CC(=O)N1CCN(c2nc(=O)n(-c3c(C)cccc3S(C)(=O)=O)c3nc(-c4c(F)cccc4C(F)F)c(F)cc23)[C@@H](C)C1 [Example 9, 4-((S)-4-acryloyl-2-methylpiperazin-1-yl)-7-(2-(difluoromethyl)-6-fluorophenyl)-6-fluoro-1-(2-methyl-6-(methylsulfonyl)phenyl) pyridino [2,3-d] pyrimidin-2 (1H)-one]",,230
"C=CC(=O)N1CCN(c2nc(=O)n(-c3c(C(C)C)cccc3S(C)(=O)=O)c3nc(-c4c(O)cccc4F)c(F)cc23)[C@@H](C)C1 [Example 10, 4-((S)-4-acryloyl-2-methylpiperazin-1-yl)-6-fluoro-7-(2-fluoro-6-hydroxyphenyl)-1-(2-isopropyl-6-(methylsulfonyl)phenyl) pyridino[2,3-d] pyrimidin-2(1H)-one]",,10
C=CC(=O)N1CCN(c2nc(=O)n(-c3c(C)cccc3N(C)S(C)(=O)=O)c3nc(-c4c(O)cccc4F)c(F)cc23)[C@@H](C)C1 [Example 11],,180

# Second part, the molecule after the results:
IC50 [nM],"IC50 (Homo sapiens, NCI-H358, 120 h) [nM]",Compound
280,,"C=CC(=O)N1CCN(c2nc(=O)n(-c3c(C(C)C)cccc3S(C)(=O)=O)c3nc(-c4c(O)cccc4F)c(F)cc23)[C@@H](C)C1 (single isomer, unassigned) [Example 10A]"
720,,"C=CC(=O)N1CCN(c2nc(=O)n(-c3c(C(C)C)ccnc3S(C)(=O)=O)c3nc(-c4c(O)cccc4F)c(F)cc23)[C@@H](C)C1 (single isomer, unassigned) [Example 16A]"
460,,"C=CC(=O)N1CCN(c2nc(=O)n(-c3c(S(C)(=O)=O)ccnc3C(C)C)c3nc(-c4c(O)cccc4F)c(F)cc23)[C@@H](C)C1 (single isomer, unassigned) [Example 18B]"
1500,,"C=CC(=O)N1CCN(c2nc(=O)n(-c3c(C(C)C)ccnc3S(C)(=O)=O)c3nc(-c4ccccc4Cl)c(F)cc23)[C@@H](C)C1 (single isomer, unassigned) [Example 20A]"
13,,"C=CC(=O)N1CCN(c2nc(=O)n(-c3c(C(C)C)ccnc3S(C)(=O)=O)c3nc(-c4ccccc4Cl)c(F)cc23)[C@@H](C)C1 (single isomer, unassigned) [Example 20B]"
350,,"C=CC(=O)N1CCN(c2nc(=O)n(-c3c(C4CCC4)cccc3S(C)(=O)=O)c3nc(-c4c(O)cccc4F)c(F)cc23)[C@@H](C)C1 (single isomer, unassigned) [Example 25A]"
6,,"C=CC(=O)N1CCN(c2nc(=O)n(-c3c(C4CCC4)cccc3S(C)(=O)=O)c3nc(-c4c(O)cccc4F)c(F)cc23)[C@@H](C)C1 (single isomer, unassigned) [Example 25B]"
740,,"C=CC(=O)N1CCN(c2nc(=O)n(-c3c(C(C)C)cccc3S(C)(=O)=O)c3nc(-c4ccccc4Cl)c(F)cc23)[C@@H](C)C1 (single isomer, unassigned) [Example 30A]"
11,,"C=CC(=O)N1CCN(c2nc(=O)n(-c3c(C(C)C)cccc3S(C)(=O)=O)c3nc(-c4ccccc4Cl)c(F)cc23)[C@@H](C)C1 (single isomer, unassigned) [Example 30B]"
300,,"C=CC(=O)N1CCN(c2nc(=O)n(-c3c(C(C)C)cccc3S(C)(=O)=O)c3nc(-c4c(F)cccc4OC(C)=O)c(F)cc23)[C@@H](C)C1 (single isomer, unassigned) [Example 31A]"
6,,"C=CC(=O)N1CCN(c2nc(=O)n(-c3c(C(C)C)cccc3S(C)(=O)=O)c3nc(-c4c(F)cccc4OC(C)=O)c(F)cc23)[C@@H](C)C1 (single isomer, unassigned) [Example 31B]"
66,,"C=CC(=O)N1CCN(c2nc(=O)n(-c3c(C)cccc3S(C)(=O)=O)c3nc(-c4c(O)cccc4F)c(F)cc23)[C@@H](C)C1 (single isomer, unassigned) [Example 53B]"
9,,"C=CC(=O)N1C[C@H](C)N(c2nc(=O)n(-c3c(C4CC4)cccc3S(C)(=O)=O)c3nc(-c4c(O)cccc4F)c(F)cc23)C[C@H]1C (single isomer, unassigned) [Example 81B]"
50,,"C=CC(=O)N1C[C@H](C)N(c2nc(=O)n(-c3c(CC)cccc3S(=O)(=O)C(C)C)c3nc(-c4c(O)cccc4F)c(F)cc23)C[C@H]1C (single isomer, unassigned) [Example 82B]"
26,,"C=CC(=O)N1CCN(c2nc(=O)n(-c3c(CC)cccc3S(=O)(=O)C(C)C)c3nc(-c4c(O)cccc4F)c(F)cc23)[C@@H](C)C1 (single isomer, unassigned) [Example 83B]"
6,,"C=CC(=O)N1C[C@H](C)N(c2nc(=O)n(-c3c(CC)cccc3S(C)(=O)=O)c3nc(-c4c(O)cccc4F)c(Cl)cc23)C[C@H]1C (single isomer, unassigned) [Example 84B]"
< 30,,"C=CC(=O)N1CCN(c2nc(=O)n(-c3c(C)cccc3S(C)(=O)=O)c3nc(-c4c(O)cccc4F)c(F)cc23)[C@@H](C)C1 (single isomer, unassigned) [Example 87A]"
< 100,,"C=CC(=O)N1CCN(c2nc(=O)n(-c3c(C)cccc3S(C)(=O)=O)c3nc(-c4c(O)cccc4F)c(F)cc23)[C@@H](C)C1 (single isomer, unassigned) [Example 87B]"
